Each block holds one compound with its values, some of them ahead of it.
Experiments:
[1] = tested on: HeLa; assay: cells; settings: Homo sapiens, 48 h
Description: Antiproliferative activity against human HeLa cells assessed as inhibition of cell growth measured after 48 hrs by CCK-8 method

[2] = tested on: MDA-MB-231; assay: cells; settings: Homo sapiens, MDA-MB-231, 48 h
Description: Antiproliferative activity against human MDA-MB-231 cells assessed as inhibition of cell growth measured after 48 hrs by CCK-8 method

[3] = tested on: SiHa; assay: cells; settings: Homo sapiens, 48 h
Description: Antiproliferative activity against human SiHa cells assessed as inhibition of cell growth measured after 48 hrs by CCK-8 method

[4] = Antiproliferative activity against rat H9c2 cells assessed as inhibition of cell growth measured after 48 hrs by CCK-8 method; assay type: toxicity, cell-based
[5] = Antiproliferative activity against human HK-2 cells assessed as inhibition of cell growth measured after 48 hrs by CCK-8 method; assay type: toxicity, cell-based
[6] = Antiproliferative activity against human MCF-10A cells assessed as inhibition of cell growth measured after 48 hrs by CCK-8 method; assay type: toxicity, cell-based
[7] = tested on: MDA-MB-436; assay: cells; settings: Homo sapiens, MDA-MB-436, 48 h
Description: Antiproliferative activity against human MDA-MB-436 cells assessed as inhibition of cell growth measured after 48 hrs by CCK-8 method

[8] = tested on: MCF7; assay: cells; settings: Homo sapiens, MCF7, 48 h
Description: Antiproliferative activity against human MCF7 cells assessed as inhibition of cell growth measured after 48 hrs by CCK-8 method

[9] = tested on: MDA-MB-231; assay: Induction of apoptosis in human MDA-MB-231 cells assessed as late apoptotic cells at 300 uM incubated for 24 hrs by Annexin V-FITC/PI staining based flow cytometry analysis (reference value: 0.46%); assay type: functional
[10] = target: Cell division cycle protein 20 homolog (Homo sapiens, UniProt Q12834); assay: Binding affinity to Cdc20 (unknown origin) assessed as dissociation constant measured after 360 secs by surface plasmon resonance assay
Sequence of Cell division cycle protein 20 homolog (Q12834 whole entry): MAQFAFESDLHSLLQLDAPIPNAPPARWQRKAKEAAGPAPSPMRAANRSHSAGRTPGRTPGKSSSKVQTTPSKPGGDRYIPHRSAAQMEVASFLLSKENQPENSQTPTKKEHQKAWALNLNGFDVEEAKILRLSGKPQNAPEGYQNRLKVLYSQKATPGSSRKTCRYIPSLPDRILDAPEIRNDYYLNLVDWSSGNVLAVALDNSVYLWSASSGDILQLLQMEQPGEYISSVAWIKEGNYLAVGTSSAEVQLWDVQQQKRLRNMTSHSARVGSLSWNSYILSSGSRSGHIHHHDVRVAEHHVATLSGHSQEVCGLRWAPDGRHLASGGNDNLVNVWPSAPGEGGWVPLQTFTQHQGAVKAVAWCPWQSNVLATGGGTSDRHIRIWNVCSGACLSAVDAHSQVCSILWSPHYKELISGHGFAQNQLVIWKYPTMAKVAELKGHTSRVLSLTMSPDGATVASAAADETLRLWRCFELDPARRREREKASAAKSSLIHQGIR

[11] = tested on: MDA-MB-231; assay: Induction of apoptosis in human MDA-MB-231 cells assessed as viable cells at 300 uM incubated for 24 hrs by Annexin V-FITC/PI staining based flow cytometry analysis (reference value: 94.1%); assay type: functional; settings: read-out: Activity
[12] = Selectivity index, ratio of IC50 for antiproliferative activity against human MCF-10A cells to IC50 for antiproliferative activity against human MDA-MB-231 cells; assay type: toxicity, cell-based; settings: MCF-10A cells and MDA-MB-231 cells, read-out: Ratio IC50
[13] = Selectivity index, ratio of IC50 for antiproliferative activity against human MCF7 cells to IC50 for antiproliferative activity against human MDA-MB-231 cells; assay type: cell-based
[14] = tested on: MDA-MB-231; assay: Induction of apoptosis in human MDA-MB-231 cells assessed as necrotic cells at 300 uM incubated for 24 hrs by Annexin V-FITC/PI staining based flow cytometry analysis (reference value: 0.033%); assay type: functional
[15] = tested on: MDA-MB-231; assay: Induction of cell cycle arrest in human MDA-MB-231 cells assessed as increase in accumulation of cells at G2/M phase at 300 uM measured after 24 hrs by PI staining based flow cytometry analysis (reference value: 26.38%); assay type: functional
[16] = tested on: MDA-MB-231; assay: Antitumor activity against human MDA-MB-231 cells xenografted in BALB/c nude mouse model assessed as reduction in tumor growth at 30 mg/kg, ip administered daily for 18 days by vernier caliper method relative to control; assay type: functional; set-up: scale not given: the % may be the effect or the level left; settings: time 18 day
[17] = tested on: MDA-MB-231; assay: Induction of apoptosis in human MDA-MB-231 cells assessed as early apoptotic cells at 300 uM incubated for 24 hrs by Annexin V-FITC/PI staining based flow cytometry analysis (reference value: 5.40%); assay type: functional

IC50 [2]: 7.27 µM
SMILES: O=C(NC(Nc1nc(Cl)cc(Nc2ccc(C(F)(F)F)cc2)n1)C(Cl)(Cl)Cl)OCCCc1ccncc1 (centres undefined)

IC50 [2]: 7.52 µM
SMILES: O=C(NC(Nc1nc(Cl)cc(Nc2ccc(C(F)(F)F)cc2)n1)C(Cl)(Cl)Cl)OCCc1ccncc1 (centres undefined)

IC50 [2]: 5.34 µM
SMILES: O=C(NC(Nc1nc(Cl)cc(Nc2ccc(C(F)(F)F)cc2)n1)C(Cl)(Cl)Cl)OCCc1ccccn1 (centres undefined)

IC50 [2]: 6.61 µM
SMILES: O=C(NC(Nc1nc(Cl)cc(Nc2ccc(C(F)(F)F)cc2)n1)C(Cl)(Cl)Cl)OCCc1ccccc1 (centres undefined)

IC50 [2]: 7.63 µM
SMILES: O=C(NC(Nc1nc(Cl)cc(Nc2ccc(C(F)(F)F)cc2)n1)C(Cl)(Cl)Cl)OCc1ccccc1 (centres undefined)

IC50 [2]: 7.21 µM
SMILES: O=C(NC(Nc1nc(Cl)cc(Nc2ccc(C(F)(F)F)cc2)n1)C(Cl)(Cl)Cl)OCCCCc1ccccc1 (centres undefined)

IC50 [2]: 4.36 µM
SMILES: Cc1ncc(C(=O)NCCOC(=O)NC(Nc2nc(Cl)cc(Nc3ccc(C(F)(F)F)cc3)n2)C(Cl)(Cl)Cl)s1 (centres undefined)

IC50 [2]: 6.69 µM
SMILES: O=C(NC(Nc1nc(Cl)cc(Nc2ccc(C(F)(F)F)cc2)n1)C(Cl)(Cl)Cl)OCCCc1ccccc1 (centres undefined)

IC50 [2]: 3.98 µM
IC50 [7]: 4.6 µM
IC50 [8]: 7.42 µM
SMILES: Cc1ncc([N+](=O)[O-])n1CCOC(=O)NC(Nc1nc(Cl)cc(Nc2ccc(C(F)(F)F)cc2)n1)C(Cl)(Cl)Cl (centres undefined)
IC50 at 48 h [4]: 22.5 µM
IC50 at 48 h [5]: 10.1 µM
IC50 at 48 h [6]: 3.7 µM
selectivity ratio [12]: 0.93
Ratio IC50 [13]: 1.86

IC50 [2]: 13.8 µM
SMILES: O=C(NC(Nc1nc(Cl)cc(Nc2ccc(C(F)(F)F)cc2)n1)C(Cl)(Cl)Cl)OCCCc1cccnc1 (centres undefined)

IC50 [2]: 3.89 µM
SMILES: O=C(NC(Nc1nc(Cl)cc(Nc2ccc(C(F)(F)F)cc2)n1)C(Cl)(Cl)Cl)OCCNC(=O)c1cnc(Cl)s1 (centres undefined)

IC50 [2]: 7.22 µM
SMILES: Cn1ccnc1C(=O)NCCOC(=O)NC(Nc1nc(Cl)cc(Nc2ccc(C(F)(F)F)cc2)n1)C(Cl)(Cl)Cl (centres undefined)

IC50 [2]: 13.8 µM
SMILES: O=C(NC(Nc1nc(Cl)cc(Nc2ccc(C(F)(F)F)cc2)n1)C(Cl)(Cl)Cl)OCCc1cccnc1 (centres undefined)

IC50 [2]: 11.1 µM
SMILES: O=C(NC(Nc1nc(Cl)cc(Nc2ccc(C(F)(F)F)cc2)n1)C(Cl)(Cl)Cl)OCCCc1ccccn1 (centres undefined)

Second part, the compound before the results:

SMILES: CCN(CC)c1cc(Cl)nc(NC(NC(=O)OCCn2c([N+](=O)[O-])cnc2C)C(Cl)(Cl)Cl)n1 (centres undefined)
IC50 [1]: 38.9 µM
IC50 [2]: 16.2 µM
IC50 [3]: 35.7 µM

SMILES: Cc1ncc([N+](=O)[O-])n1CCOC(=O)NC(Nc1nc(Nc2ccc(C(F)(F)F)cc2)cc(C(F)(F)F)n1)C(Cl)(Cl)Cl (centres undefined)
IC50 [2]: 5.23 µM

SMILES: Cc1ncc([N+](=O)[O-])n1CCOC(=O)NC(Nc1ncc(Br)c(Nc2ccc(C(F)(F)F)cc2)n1)C(Cl)(Cl)Cl (centres undefined)
IC50 [2]: 4.58 µM

SMILES: Cc1ncc([N+](=O)[O-])n1CCOC(=O)NC(Nc1nc(N)cc(F)n1)C(Cl)(Cl)Cl (centres undefined)
IC50 [1]: 65.4 µM
IC50 [2]: > 100 µM
IC50 [3]: > 100 µM

SMILES: COc1cc(N)nc(NC(NC(=O)OCCn2c([N+](=O)[O-])cnc2C)C(Cl)(Cl)Cl)n1 (centres undefined)
IC50 [1]: > 100 µM
IC50 [2]: > 100 µM
IC50 [3]: 89.4 µM

SMILES: Cc1ncc([N+](=O)[O-])n1CCOC(=O)NC(Nc1nc(Cl)cc(Nc2ccccc2)n1)C(Cl)(Cl)Cl (centres undefined)
IC50 at 48 h [4]: 15.1 µM
IC50 at 48 h [5]: 18.3 µM
IC50 at 48 h [6]: 22.5 µM
IC50 [1]: 19.6 µM
IC50 [2]: 14.1 µM
IC50 [7]: 13.7 µM
IC50 [3]: 24.4 µM
IC50 [8]: 9 µM

SMILES: Cc1ncc([N+](=O)[O-])n1CCOC(=O)NC(Nc1nc(N)cc(Cl)n1)C(Cl)(Cl)Cl (centres undefined)
IC50 [1]: 45 µM
IC50 [2]: > 100 µM
IC50 [3]: 39 µM

SMILES: Cc1ncc([N+](=O)[O-])n1CCOC(=O)NC(Nc1nc(Cl)cc(Nc2cccc(OC(F)(F)F)c2)n1)C(Cl)(Cl)Cl (centres undefined)
IC50 [2]: 6.76 µM

SMILES: Cc1ncc([N+](=O)[O-])n1CCOC(=O)NC(Nc1nc(Cl)cc(Nc2ccccc2F)n1)C(Cl)(Cl)Cl (centres undefined)
IC50 [2]: 16 µM

SMILES: Cc1ncc([N+](=O)[O-])n1CCOC(=O)NC(Nc1ncc(Cl)c(Nc2ccc(C(F)(F)F)cc2)n1)C(Cl)(Cl)Cl (centres undefined)
IC50 [2]: 4.19 µM

SMILES: Cc1ncc([N+](=O)[O-])n1CCOC(=O)NC(Nc1nc(Cl)cc(Nc2ccc(F)cc2)n1)C(Cl)(Cl)Cl (centres undefined)
IC50 [2]: 8.13 µM

SMILES: Cc1cc(N)nc(NC(NC(=O)OCCn2c([N+](=O)[O-])cnc2C)C(Cl)(Cl)Cl)n1 (centres undefined)
IC50 [1]: > 100 µM
IC50 [2]: > 100 µM
IC50 [3]: > 100 µM

SMILES: O=C(NC(Nc1nc(Cl)cc(Nc2ccc(C(F)(F)F)cc2)n1)C(Cl)(Cl)Cl)OCCNC(=O)c1csc(Cl)n1 (centres undefined)
IC50 [2]: 7.27 µM

SMILES: Cc1ncc([N+](=O)[O-])n1CCOC(=O)NC(Nc1ncccn1)C(Cl)(Cl)Cl (centres undefined)
IC50 at 48 h [4]: 252 µM
Activity [9]: 0.95%
Kd [10]: 236 µM
viability at 300 µM [11]: 59.7%
IC50 at 48 h [5]: 151 µM
IC50 at 48 h [6]: 161 µM
IC50 [1]: 198 µM
selectivity ratio [12]: 0.84
IC50 [2]: 192 µM
Ratio IC50 [13]: 1.53
IC50 [7]: 176 µM
IC50 [3]: 203 µM
Activity [14]: 0.7%
Activity [15]: 38.8%
IC50 [8]: 292 µM
Activity [16]: 53%
Activity [17]: 38.6%

SMILES: Cc1ccc(Nc2cc(Cl)nc(NC(NC(=O)OCCn3c([N+](=O)[O-])cnc3C)C(Cl)(Cl)Cl)n2)cc1 (centres undefined)
IC50 [2]: 7.62 µM

SMILES: Cc1ncc([N+](=O)[O-])n1CCOC(=O)NC(Nc1nc(Cl)cc(-c2ccccc2)n1)C(Cl)(Cl)Cl (centres undefined)
IC50 [1]: 33.2 µM
IC50 [2]: 18.5 µM
IC50 [3]: 41.4 µM

SMILES: CNc1cc(Cl)nc(NC(NC(=O)OCCn2c([N+](=O)[O-])cnc2C)C(Cl)(Cl)Cl)n1 (centres undefined)
IC50 [1]: 72.3 µM
IC50 [2]: 56.7 µM
IC50 [3]: 56.6 µM

SMILES: Cc1ncc([N+](=O)[O-])n1CCOC(=O)NC(Nc1nc(Cl)cc(Nc2cccc(C#N)c2)n1)C(Cl)(Cl)Cl (centres undefined)
IC50 [2]: 16.2 µM

SMILES: Cc1ncc([N+](=O)[O-])n1CCOC(=O)NC(Nc1nc(Cl)cc(N(C)C)n1)C(Cl)(Cl)Cl (centres undefined)
IC50 [1]: 70.2 µM
IC50 [2]: 36.4 µM
IC50 [3]: 47.4 µM

SMILES: Cc1cccc(Nc2cc(Cl)nc(NC(NC(=O)OCCn3c([N+](=O)[O-])cnc3C)C(Cl)(Cl)Cl)n2)c1 (centres undefined)
IC50 [2]: 7.79 µM

SMILES: Cc1ncc([N+](=O)[O-])n1CCOC(=O)NC(Nc1nc(Cl)cc(Nc2ccc(OC(F)(F)F)cc2)n1)C(Cl)(Cl)Cl (centres undefined)
IC50 [2]: 5.65 µM

SMILES: Cc1ncc([N+](=O)[O-])n1CCOC(=O)NC(Nc1nc(Cl)cc(Nc2cccc(C(F)(F)F)c2)n1)C(Cl)(Cl)Cl (centres undefined)
IC50 [2]: 6.01 µM

SMILES: Cc1ncc([N+](=O)[O-])n1CCOC(=O)NC(Nc1nc(Cl)cc(Nc2ccc(C#N)cc2)n1)C(Cl)(Cl)Cl (centres undefined)
IC50 [2]: 11 µM

SMILES: Cc1ncc([N+](=O)[O-])n1CCOC(=O)NC(Nc1nc(Cl)cc(Nc2cccc(F)c2)n1)C(Cl)(Cl)Cl (centres undefined)
IC50 [2]: 8.67 µM

— ChEMBL document CHEMBL6109089, “Design, synthesis and optimization of Apcin analogues as Cdc20 inhibitors for triple-negative breast cancer therapy” (Eur J Med Chem, 2025)
